The record followed here is BindingDB's records for doi:10.7270/Q2V986KM (Burnham Center For Chemical Genomics, 2011).

One may read the IC50 as the midpoint of a concentration-inhibition curve.

Molecules are shown by their SMILES. Bounds are passed on as bounds.

The target of the assay is T1, Carboxy-terminal domain RNA polymerase II polypeptide A small phosphatase 1 (Homo sapiens, UniProt Q9GZU7).
T1 sequence (Q9GZU7 whole entry): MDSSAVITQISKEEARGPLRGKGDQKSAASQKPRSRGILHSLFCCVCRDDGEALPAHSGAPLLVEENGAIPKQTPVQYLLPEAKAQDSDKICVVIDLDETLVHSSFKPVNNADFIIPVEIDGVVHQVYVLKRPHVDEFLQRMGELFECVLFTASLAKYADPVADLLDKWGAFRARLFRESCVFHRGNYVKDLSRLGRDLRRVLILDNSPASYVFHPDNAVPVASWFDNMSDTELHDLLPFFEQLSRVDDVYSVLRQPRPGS
Briefly: Ultra-high-throughput screening actives, CTDSP1 enzyme inhibition, concentration-response testing, biochemical, absorbance detection (AID 540297).

Compound `CC(=O)C(C[N+]1(C)CCCCC1)N=O` (stereo not given) came in with an IC50 of 3.4 µM.

In the case of `CC(=NNC(=O)c1cc(-c2cccc([N+](=O)[O-])c2)n[nH]1)C1C=CC=CC1=O` (stereo not given) [3-(3-nitrophenyl)-N'-[(1E)-1-(6-oxo-1-cyclohexa-2,4-dienylidene)ethyl]-1H-pyrazole-5-carbohydrazide], the IC50 amounted to 1.7 µM.

`COc1cc(CN=Nc2nc(O)c(CC(=O)O)s2)ccc1OCc1ccc(Cl)cc1` [2-[2-[2-[[4-[(4-chlorophenyl)methoxy]-3-methoxy-phenyl]methylidene]hydrazinyl]-4-oxidanylidene-1,3-thiazol-5-yl]ethanoic acid] gave an IC50 of 12.4 µM.

Consider `CCN(CC)P(=O)(NC(=O)C(Cl)(Cl)Cl)N(CC)CC` [MLS000564159], for which inhibition was half-maximal at 2.49 µM (IC50).

With `O=C(O)CCC(N=Nc1ccc(S(=O)(=O)N2CCCC2)cc1[N+](=O)[O-])c1cccs1` (stereo not given) [4-[(2-nitro-4-pyrrolidin-1-ylsulfonyl-phenyl)hydrazinylidene]-4-thiophen-2-yl-butanoic acid], the IC50 was found to be 15.5 µM. This IC50 lies about 6.2-fold higher than the previous one.

`Cc1ccc(C(=O)N[n+]2cc(O)[c-](-c3nc(-c4cccc([N+](=O)[O-])c4)cs3)c2N)cc1` [MLS000391743] came in with an IC50 of 4.06 µM.

Turning to `O=C1CC(=O)c2cccc(O)c2C1=O` [4,8-dihydroxynaphthalene-1,2-dione], the 50% inhibitory concentration (IC50) came out at 44.5 µM.

Compound `CSc1nnc(C)c(CC=Nc2ccc(F)cc2F)n1` [MLS000707071] came in with an IC50 of 13.3 µM.

For `C/C(C=NNC(=O)c1ccc(Br)cc1)=C\c1ccccc1` [SMR000140417], the concentration for half-maximal inhibition (IC50) amounted to 4.83 µM.

Regarding `O=C1C=C(O)/C(=C/NN2C(=O)C3C(C2=O)C2C=CC3C23CC3)C=C1[N+](=O)[O-]` (stereo not given) [MLS000705206], it took 4.9 µM to reach half-maximal inhibition (IC50). This IC50 and that of the compound before are within 1.5-fold of each other.

In turn, `Cc1ccc(C(=O)NN=C/C=C/c2ccc(Br)cc2)cn1` [MLS000723380] yielded an IC50 of 24.1 µM. This IC50 is about 4.9-fold higher than that of the compound before.

With `O=c1c(Cl)c(N=NCc2ccc(Br)cc2)cnn1-c1ccccc1`, the 50% inhibitory concentration (IC50) is above 80 µM.

In the case of `C[N+](C)(C)CCNC(=O)C1=C/C(=C\N=O)N(Cc2ccccc2)C=C1`, the IC50 was 7.56 µM.

As to `O=C(NN=C/C(Cl)=C/c1ccccc1)c1ccc2c(c1)OCO2` [SMR001240783], the IC50 is 8.6 µM.

The compound `COc1ccccc1N/C(C)=[N+](\C)CCNS(=O)(=O)c1ccc(Cl)cc1` [MLS001165874] had an IC50 of 3.73 µM.

Regarding `CCOc1cc(CN=Nc2nc(O)c(CC(=O)O)s2)ccc1OCc1ccc(Cl)cc1Cl` [2-[2-[(N''E)-N''-[4-(2,4-dichlorobenzyl)oxy-3-ethoxy-benzylidene]hydrazino]-4-keto-2-thiazolin-5-yl]acetic acid], the IC50 amounted to 2.32 µM.

Turning to `Cc1ccc(-n2[nH]c(C)c(CN=Nc3ccc([N+](=O)[O-])cc3[N+](=O)[O-])c2=O)cc1` [SMR000171521], the IC50 came out at 6.07 µM.

Compound `Cc1ccc(OCC(=O)N/N=C/c2ccc(O)c([N+](=O)[O-])c2)c([N+](=O)[O-])c1` [SMR000312577] had a half-maximal inhibitory concentration (IC50) of 8.42 µM.

`O=C(O)Cc1sc(N=NCc2ccccc2)nc1-c1ccccc1` returned an IC50 of 5.14 µM.

As to `COc1ccc(N/C(C)=[N+](\C)CCNS(=O)(=O)c2ccc(Cl)cc2)cc1`, the concentration for half-maximal inhibition (IC50) is 3.29 µM.

In turn, `COc1ccc(CN=Nc2nc(O)c(CC(=O)O)s2)cc1OCc1ccc(Cl)cc1Cl` [[2-({3-[(2,4-dichlorobenzyl)oxy]-4-methoxybenzylidene}hydrazono)-4-oxo-1,3-thiazolidin-5-yl]acetic acid] registered a half-inhibitory concentration (IC50) of 4.48 µM.

In the case of `CCOc1cc(CN=Nc2nc(O)c(CC(=O)O)s2)ccc1OCc1ccccc1Cl`, the IC50 was determined as 4.28 µM.

The compound `C=c1[nH]c(=Cc2ccc(CNC(=O)C(=O)Nc3ccccc3)o2)c(O)c1C(=O)OCC` [(5E)-5-[[5-[[(2-anilino-1,2-dioxoethyl)amino]methyl]-2-furanyl]methylidene]-2-methyl-4-oxo-1H-pyrrole-3-carboxylic acid ethyl ester] registered an IC50 of 8.55 µM.

For the compound `O=NCc1cccn1-c1cccc(C(=O)O)c1` [3-[2-(hydroximinomethyl)pyrrol-1-yl]benzoic acid], 3.09 µM corresponded to half-maximal inhibition (IC50).

On to `COC(=O)C1C(COc2ccccc2)=NC(=O)NC1c1ccc2ccccc2c1` (stereo not given), for which the IC50 turned out to be 13.8 µM.

Take `O=C(NN=C/C=C/c1ccc(Br)cc1)c1ccc2c(c1)OCO2` [Benzo[1,3]dioxole-5-carboxylic acid [3-(4-bromo-phenyl)-allylidene]-hydrazide]: the concentration for half-maximal inhibition (IC50) stood at 4.92 µM. This IC50 lies about 2.8-fold lower than the previous one.

For the compound `Cc1nnc(NS(=O)(=O)c2ccc(/N=N/c3ccc(N)nc3N)cc2)s1`, the 50% inhibitory concentration (IC50) amounted to 11.5 µM.

On to `CCOc1ccccc1C(=O)c1cc(O)c2ccccc2c1O` [2-[(2-ethoxyphenyl)-oxidanyl-methyl]naphthalene-1,4-dione], for which 4.16 µM corresponded to half-maximal inhibition (IC50). This IC50 is about 2.8-fold lower than that of the compound before.

Turning to `O=C1Nc2ccc([N+](=O)[O-])cc2/C1=N/NC(=O)c1cc(-c2ccccc2Cl)nc2ccccc12` [2-(2-chlorophenyl)-N'-(2-keto-5-nitro-indol-3-yl)cinchoninohydrazide], the IC50 came out at 0.711 µM.

As to `C=CCOc1ccc(CN=Nc2ccc(S(=O)(=O)Nc3ccccc3C(=O)O)cc2[N+](=O)[O-])cc1OC` [2-[[4-[2-[(3-methoxy-4-prop-2-enoxy-phenyl)methylidene]hydrazinyl]-3-nitro-phenyl]sulfonylamino]benzoic acid], the midpoint of inhibition, the IC50, lay at 2 µM.

`Cc1[nH][nH]c(=O)c1CCC(=O)NN=Cc1ccco1` displayed a half-inhibitory concentration (IC50) above 80 µM.

`C/C(Nc1ccc(F)cc1)=[N+](/C)CCNS(=O)(=O)c1ccc(Cl)cc1`: the IC50 was 5.86 µM.

Regarding `COc1ccc(CN=Nc2ncc(Br)cn2)c(OC)c1` [MLS000856301], it took 19.6 µM to reach half-maximal inhibition (IC50).

`CC1(CC(=O)NN=CC2C=C([N+](=O)[O-])C(=O)C=C2O)OCCO1` (stereo not given) [N'-[(E)-(2-hydroxy-5-nitro-4-oxocyclohexa-2,5-dien-1-ylidene)methyl]-2-(2-methyl-1,3-dioxolan-2-yl)acetohydrazide] registered a half-inhibitory concentration (IC50) of 4.41 µM.

For `Cc1ccc(-c2csc(-c3c(O)cn(NC(=O)c4ccco4)c3N)n2)cc1` [SMR000363171], the IC50 is 12.9 µM.

For the compound `CCOC(=O)C1C(COC(=O)C=Cc2ccco2)=NC(=O)NC1C` (stereo not given), inhibition was half-maximal at 4.25 µM (IC50).

For the compound `CCCCCn1cc(O)c(-c2nc(-c3ccc(Cl)cc3)cs2)c1N` [5-azanyl-4-[4-(4-chlorophenyl)-1,3-thiazol-2-yl]-1-pentyl-2H-pyrrol-3-one], half-maximal inhibition (IC50) required 5.38 µM.

Compound `O=C(NN=C/C=C\c1ccco1)c1ccccn1` [Pyridine-2-carboxylic acid [(Z)-3-furan-2-yl-prop-2-en-(E)-ylidene]-hydrazide] gave an IC50 of 14.5 µM.

As for `COc1ccc(/C=C/C(=O)Oc2cccc(C=NNC(=O)c3cccc(F)c3)c2)cc1` [[3-[[(3-fluorobenzoyl)hydrazinylidene]methyl]phenyl] (E)-3-(4-methoxyphenyl)prop-2-enoate], half-maximal inhibition (IC50) was put at 12.8 µM.

For the compound `CC=CC=CC(=O)C1C(=O)[C@]2(C)C(=O)C(C)(O)[C@H]1[C@H]([C@]1(C)OC(=O)C(C)C1=O)[C@H]2C(=O)C=CC=CC` (stereo partly drawn) [(1S,4R,6E,7S,8R)-8-[(2E,4E)-hexa-2,4-dienoyl]-2-hydroxy-7-[(2S)-5-hydroxy-2,4-dimethyl-3-oxofuran-2-yl]-6-[(2E,4E)-1-hydroxyhexa-2,4-dienylidene]-2,4-dimethylbicyclo[2.2.2]octane-3,5-dione], the half-inhibitory concentration (IC50) turned out to be 5.92 µM.

In the case of `CC(=NNC(=O)c1cccc(N=NC(C)c2ccco2)c1)c1ccco1` (stereo not given) [N-[1-(2-furanyl)ethylideneamino]-3-[2-[1-(2-furanyl)ethylidene]hydrazinyl]benzamide], the IC50 came to 3.17 µM. Against the preceding compound, the IC50 is about 1.9-fold lower.

In turn, `Cc1ccc(-c2csc(-n3[nH]c(C)c(N=Nc4ccccc4O)c3=O)n2)cc1` registered an IC50 of 3.69 µM.

Compound `Cc1ccc(OCC(=O)NN=C/C=C/c2ccco2)cc1` [MLS000563872] registered an IC50 of 6 µM.

Take `C=CC1=C(C(=O)O)N2C(=O)[C@@H](NC(=O)C(N=O)c3csc(N)n3)[C@H]2SC1` (stereo partly drawn) [(6R,7R)-7-[[2-(2-azanyl-1,3-thiazol-4-yl)-2-hydroxyimino-ethanoyl]amino]-3-ethenyl-8-oxidanylidene-5-thia-1-azabicyclo[4.2.0]oct-2-ene-2-carboxylic acid]: half-maximal inhibition (IC50) was put at 4.48 µM.

Consider `O=C(CCCC(=O)Nc1cccc(Br)c1)N/N=C/C1C=C([N+](=O)[O-])C=CC1=O` (stereo not given), for which the midpoint of inhibition, the IC50, lay at 6.26 µM. The IC50 values of the last two compounds are within 1.5-fold of each other.

Consider `CCOc1ccccc1/N=C1\SCCCN1C`, for which half-maximal inhibition (IC50) was put at 23 µM.

In turn, `C=CCC1C=C(/C=C/c2nc(O)c([N+](=O)[O-])c(=O)[nH]2)C=C(OC)C1=O` (stereo not given) [MLS000716350] yielded an IC50 of 19.3 µM.

Regarding `COc1ccccc1NC(=O)CN1C(=O)/C(=N\NC(=O)c2ccccc2O)c2ccccc21` [2-hydroxy-N-[(Z)-[1-[2-(2-methoxyanilino)-2-oxoethyl]-2-oxo-3-indolylidene]amino]benzamide], 2.74 µM corresponded to half-maximal inhibition (IC50).

The compound `O=C(O)c1cccc(-n2c(O)c3c(c2O)CC(Cl)=CC3)c1` [3-[5-chloranyl-1,3-bis(oxidanylidene)-3a,4,7,7a-tetrahydroisoindol-2-yl]benzoic acid] displayed an IC50 of 10.3 µM.

`O=C(CSc1nc(O)cc(=O)[nH]1)Nc1ccccc1[N+](=O)[O-]` [SMR000620617]: the half-maximal inhibitory concentration (IC50) worked out at 4.04 µM.

`CCOc1ccc(CN=Nc2ccc(S(=O)(=O)Nc3ccccc3C(=O)O)cc2[N+](=O)[O-])cc1OC` [SMR001308940] had a half-maximal inhibitory concentration (IC50) of 3.51 µM.

Take `Cc1cc(=O)n(-c2ccc(Cl)c(C(=O)O)c2)[nH]1` [2-Chloro-5-(3-methyl-5-oxo-4,5-dihydro-pyrazol-1-yl)-benzoic acid]: the 50% inhibitory concentration (IC50) was 8.96 µM.

Compound `CCCCC1(C)OC(=O)C(=Cc2ccc(-c3ccc(Cl)c(C(=O)O)c3)o2)C(=O)O1` (stereo not given) gave an IC50 of 15.1 µM.

Compound `Cc1cccc(NC(=O)CN2C(=O)/C(=N\NC(=O)c3ccccc3O)c3ccccc32)c1` [MLS000548432] yielded a half-maximal inhibitory concentration (IC50) of 1.99 µM.

Consider `Cc1cc(C)n2c(SCC(=O)C(C#N)c3nc4ccccc4[nH]3)nnc2n1` (stereo not given) [2-(1,3-dihydrobenzimidazol-2-ylidene)-4-[(5,7-dimethyl-[1,2,4]triazolo[4,3-a]pyrimidin-3-yl)sulfanyl]-3-oxidanylidene-butanenitrile], for which inhibition was half-maximal at 5.01 µM (IC50).
